Assay [1] deals with T47D (PI3Kα-H1047R) cell line. Kind of assay: HTRF phospho-AKT(S473) cell assay in T47D cells. It is filed as cell-based, human. The note with it: Homo sapiens; T47D (PI3Kα-H1047R) cells, HTRF phospho-AKT(S473), 2 hours compound incubation. In a few lines:
(§1)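 pAKT(S473) in lysates read by HTRF after a 2 h, 37 °C compound exposure (12-point 1:3 series, max 0.5% DMSO). SKBR3 (wild type, top 10 μM) received 70 ng/ml PDGF-BB during the final 15 min; T47D (H1047R, top 5 μM) was unstimulated. IC50 values derived from the dose-response.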
For orientation: Time-resolved FRET reads energy transfer from a long-lived donor to a nearby acceptor.

Assay [2] has as its system SKBR3 (PI3Kα-Wild Type) cell line. The assay is described as follows: HTRF phospho-AKT(S473) cell assay in SKBR3 cells. The format is cell-based, human. The note with it: Homo sapiens, SK-BR-3; SKBR3 (PI3Kα-Wild Type) cells, HTRF phospho-AKT(S473), 2 hours compound incubation, PDGF-BB stimulated. The procedure, abridged: as §1
The target of assay [3] is PI3Kα (Homo sapiens, UniProt P42336). Kind of assay: PI3Kα enzyme assay (Transcreener ADP2 TR-FRET Red Assay). It is filed as biochemical. The note with it: purified recombinant full-length protein; 2 hours pre-incubation with compound; read-out: PI3Kα WT IC50. As to the method:
(§2) Activity against PI3Kα and PI3Kα H1047R enzymes were determined in biochemical assays using purified recombinant full-length proteins with the Transcreener ADP^2 TR-FRET Red Assay from Bellbrook Labs. (Catalogue number 3011-10K). Test compounds were dissolved in DMSO and were tested in 11 point 1:3 serial dilutions, typical final concentration range from 50,000 nM to 0.85 nM. Enzymes were pre-incubated with compounds for 2 hours at room temperature prior to initiating the reactions. Assays were initiated with a 2×ATP/PI(4,5)P2 diC8 substrate mixture. After 60 minutes at room temperature, the reactions were quenched with detection reagent and incubated for an additional 60 minutes at room temperature. The plates were read using a multimode reader and the emission ratio of 665 nm to 615 nm was determined. This ratio was converted to percent of control (POC). [1-(high control-sample signal)/(high control-low control)]*100. Wells without compound were used to determine high control values and wells without enzyme were used to determine low control values. The POC values were fit using a four-parameter logistic model and the value where the fit curve was equal to 50 POC was reported as the IC50 using the Signals VitroVivo software package (PerkinElmer). Final assay conditions were: 40 mM HEPES pH 7.5, 20 mM NaCl, 25 mM MgCl2, 0.01% Triton X-100. The enzyme source, catalogue number, final enzyme concentration, and final ATP and PI(4,5)P2 diC8 concentration can be found in the table E10 below.

The target of assay [4] is PI3Kα H1047R (Homo sapiens, UniProt P42336, H1047R). The assay is described as follows: PI3Kα H1047R enzyme assay (Transcreener ADP2 TR-FRET Red Assay). The format is biochemical. As to conditions: purified recombinant full-length protein; 2 hours pre-incubation with compound. As to the method: as §2
Chain of PI3Kα H1047R (P42336 whole entry H1047R): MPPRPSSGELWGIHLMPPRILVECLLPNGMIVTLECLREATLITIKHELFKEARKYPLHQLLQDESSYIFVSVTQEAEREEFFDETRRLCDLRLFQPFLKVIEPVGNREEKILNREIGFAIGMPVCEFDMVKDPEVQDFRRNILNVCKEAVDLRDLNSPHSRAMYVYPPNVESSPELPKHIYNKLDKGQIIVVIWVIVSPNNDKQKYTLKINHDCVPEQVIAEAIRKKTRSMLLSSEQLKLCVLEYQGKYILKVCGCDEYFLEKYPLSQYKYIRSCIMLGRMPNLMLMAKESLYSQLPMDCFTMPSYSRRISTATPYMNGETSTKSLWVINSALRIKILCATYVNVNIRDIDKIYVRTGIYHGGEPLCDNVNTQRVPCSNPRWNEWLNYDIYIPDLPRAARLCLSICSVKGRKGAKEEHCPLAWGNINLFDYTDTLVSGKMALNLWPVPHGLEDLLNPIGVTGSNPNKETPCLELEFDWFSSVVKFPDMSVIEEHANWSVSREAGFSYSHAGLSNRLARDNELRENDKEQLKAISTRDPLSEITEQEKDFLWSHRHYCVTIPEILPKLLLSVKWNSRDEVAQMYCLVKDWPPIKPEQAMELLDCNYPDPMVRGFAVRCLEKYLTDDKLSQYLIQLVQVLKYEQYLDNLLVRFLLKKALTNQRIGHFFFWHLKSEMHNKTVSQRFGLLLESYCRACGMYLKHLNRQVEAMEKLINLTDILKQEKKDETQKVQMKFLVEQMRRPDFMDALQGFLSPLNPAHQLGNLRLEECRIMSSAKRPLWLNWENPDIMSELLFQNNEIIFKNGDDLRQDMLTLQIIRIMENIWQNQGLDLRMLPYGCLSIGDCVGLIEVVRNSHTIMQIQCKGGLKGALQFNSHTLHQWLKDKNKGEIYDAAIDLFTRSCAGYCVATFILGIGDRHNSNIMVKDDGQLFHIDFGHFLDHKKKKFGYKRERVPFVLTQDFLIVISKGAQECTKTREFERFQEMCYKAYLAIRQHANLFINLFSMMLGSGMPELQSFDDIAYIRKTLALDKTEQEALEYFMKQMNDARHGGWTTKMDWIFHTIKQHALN
Chain of PI3Kα H1047R (P27986 2-724 partner): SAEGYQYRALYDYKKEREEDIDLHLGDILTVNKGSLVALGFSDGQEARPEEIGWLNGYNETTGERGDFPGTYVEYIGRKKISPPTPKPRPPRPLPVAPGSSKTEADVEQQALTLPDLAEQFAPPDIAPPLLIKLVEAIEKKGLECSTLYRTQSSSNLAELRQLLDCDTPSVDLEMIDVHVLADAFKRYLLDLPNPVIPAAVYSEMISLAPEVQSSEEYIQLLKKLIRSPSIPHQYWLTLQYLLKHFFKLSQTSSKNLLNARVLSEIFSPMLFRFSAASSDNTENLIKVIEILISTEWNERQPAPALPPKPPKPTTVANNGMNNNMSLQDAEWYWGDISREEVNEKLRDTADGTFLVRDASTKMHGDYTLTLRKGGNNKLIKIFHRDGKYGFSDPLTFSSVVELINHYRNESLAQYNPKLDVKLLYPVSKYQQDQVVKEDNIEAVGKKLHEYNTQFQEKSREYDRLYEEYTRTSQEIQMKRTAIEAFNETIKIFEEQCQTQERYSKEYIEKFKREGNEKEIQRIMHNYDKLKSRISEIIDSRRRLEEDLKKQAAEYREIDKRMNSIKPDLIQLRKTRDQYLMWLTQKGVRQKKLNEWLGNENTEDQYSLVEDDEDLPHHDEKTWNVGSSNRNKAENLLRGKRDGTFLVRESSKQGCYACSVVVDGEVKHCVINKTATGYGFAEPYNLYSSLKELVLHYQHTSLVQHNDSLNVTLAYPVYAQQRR

The IC50 is the point on the concentration scale where inhibition reaches its midpoint.

Chain of PI3Kα (P42336 whole entry): as the sequence (P42336 whole entry H1047R) above, with R1047H counted along it
Chain of PI3Kα (P27986 2-724 partner): as the sequence (P27986 2-724 partner) above

In the case of `Cc1cc([C@@H](C)Nc2ccc(Cl)nc2C(=O)NS(C)(=O)=O)c2nc(NC34CC(C3)C4)n(C)c(=O)c2c1` [Compound 6, (R)-3-((1-(2-(bicyclo[1.1.1]pentan-1-ylamino)-3,6-dimethyl-4-oxo-3,4-dihydroquinazolin-8-yl)ethyl)amino)-6-chloro-N-(methylsulfonyl) picolinamide], the concentration for half-maximal inhibition (IC50) is 1 to 5 µM in assay [1], at least 5 µM in assay [2], at least 1 µM in assay [3] and at least 1 µM in assay [4].

For the molecule `Cc1cc([C@@H](C)Nc2ccc(Cl)nc2C(=O)NS(C)(=O)=O)c2nc(NC(C)(C)C)n(C)c(=O)c2c1` [Compound 7, (R)-3-((1-(2-(tert-butylamino)-3,6-dimethyl-4-oxo-3,4-dihydroquinazolin-8-yl)ethyl)amino)-6-chloro-N-(methylsulfonyl) picolinamide], the IC50 was 1 to 5 µM in assay [1], at least 5 µM in assay [2], at least 1 µM in assay [3] and at least 1 µM in assay [4].

On to `Cc1cc([C@@H](C)Nc2ccc(Cl)nc2C(=O)NS(C)(=O)=O)c2nc(NCC3CC3)n(C)c(=O)c2c1` [Compound 8, (R)-6-chloro-3-((1-(2-((cyclopropylmethyl)amino)-3,6-dimethyl-4-oxo-3,4-dihydroquinazolin-8-yl)ethyl)amino)-N-(methylsulfonyl) picolinamide], for which the IC50 is 0.25 to 0.5 µM in assay [1], 1 to 5 µM in assay [2], at least 1 µM in assay [3] and 0.25 to 0.5 µM in assay [4].

Consider `Cc1cc([C@@H](C)Nc2ccc(Cl)nc2C(=O)NS(C)(=O)=O)c2nc(N3CC4(C3)CC(F)(F)C4)n(C)c(=O)c2c1` [Compound 9, (R)-6-chloro-3-((1-(2-(6,6-difluoro-2-azaspiro[3.3]heptan-2-yl)-3,6-dimethyl-4-oxo-3,4-dihydroquinazolin-8-yl)ethyl)amino)-N-(methylsulfonyl) picolinamide], for which the IC50 in assay [1] is 0.25 to 0.5 µM; in assay [2], 1 to 5 µM; in assay [3] it was at least 1 µM; in assay [4], 0.5 to 1 µM.

In the case of `Cc1cc([C@@H](C)Nc2ccc(Cl)nc2C(=O)NS(C)(=O)=O)c2nc(NC3CCC3)n(C)c(=O)c2c1` [Compound 10, (R)-6-chloro-3-((1-(2-(cyclobutylamino)-3,6-dimethyl-4-oxo-3,4-dihydroquinazolin-8-yl)ethyl)amino)-N-(methylsulfonyl) picolinamide], the IC50 in assay [1] is 1 to 5 µM; in assay [2], at least 5 µM; in assay [3] it was at least 1 µM; in assay [4], 0.25 to 0.5 µM.

As for `Cc1cc([C@@H](C)Nc2ccc(Cl)nc2C(=O)NS(C)(=O)=O)c2nc(NC3CCCC3)n(C)c(=O)c2c1` [Compound 11, (R)-6-chloro-3-((1-(2-(cyclopentylamino)-3,6-dimethyl-4-oxo-3,4-dihydroquinazolin-8-yl)ethyl)amino)-N-(methylsulfonyl) picolinamide], the IC50 in assay [1] was 0.25 to 0.5 µM; in assay [2] it was at least 5 µM; in assay [3], at least 1 µM; in assay [4] it was 0.25 to 0.5 µM.

For `Cc1cc([C@@H](C)Nc2ccc(Cl)nc2C(=O)NS(C)(=O)=O)c2nc(N(C)C34CC(C3)C4)n(C)c(=O)c2c1` [Compound 13, (R)-3-((1-(2-(bicyclo[1.1.1]pentan-1-yl(methyl)amino)-3,6-dimethyl-4-oxo-3,4-dihydroquinazolin-8-yl)ethyl)amino)-6-chloro-N-(methylsulfonyl) picolinamide], the IC50 in assay [1] was 0.25 to 0.5 µM; in assay [2], 1 to 5 µM; in assay [3], at least 1 µM; in assay [4], 0.5 to 1 µM.

For `Cc1cc([C@@H](C)Nc2ccc(Cl)nc2C(=O)NS(C)(=O)=O)c2nc(N(C)CC3CC3)n(C)c(=O)c2c1` [Compound 14, (R)-6-chloro-3-((1-(2-((cyclopropylmethyl) (methyl)amino)-3,6-dimethyl-4-oxo-3,4-dihydroquinazolin-8-yl)ethyl)amino)-N-(methylsulfonyl) picolinamide], the IC50 in assay [1] was 0.25 to 0.5 µM; in assay [2], 1 to 5 µM; in assay [3], at least 1 µM; in assay [4], 0.25 to 0.5 µM.

Turning to `Cc1cc([C@@H](C)Nc2ccc(Cl)nc2C(=O)NS(C)(=O)=O)c2nc(N3CCC3)n(C)c(=O)c2c1` [Compound 15], the IC50 in assay [1] was 0.25 to 0.5 µM; in assay [2], 1 to 5 µM; in assay [3], at least 1 µM; in assay [4] it was 0.25 to 0.5 µM.

Regarding `Cc1cc([C@@H](C)Nc2ccc(Cl)nc2C(=O)NS(C)(=O)=O)c2nc(N3CCCC3)n(C)c(=O)c2c1` [Compound 16], the IC50 in assay [1] was 0.25 to 0.5 µM; in assay [2], 1 to 5 µM; in assay [3], at least 1 µM; in assay [4], 0.25 to 0.5 µM.

Turning to `Cc1cc([C@@H](C)Nc2ccc(Cl)nc2C(=O)NS(C)(=O)=O)c2nc(NCc3ccc(F)cc3C)n(C)c(=O)c2c1` [Compound 17, (R)-6-chloro-3-((1-(2-((4-fluoro-2-methylbenzyl)amino)-3,6-dimethyl-4-oxo-3,4-dihydroquinazolin-8-yl)ethyl)amino)-N-(methylsulfonyl) picolinamide], the IC50 in assay [1] was 1 to 5 µM; in assay [2] it was at least 5 µM; in assay [3] it was at least 1 µM; in assay [4] it was at least 1 µM.

For `Cc1cc([C@@H](C)Nc2ccc(Cl)nc2C(=O)NS(C)(=O)=O)c2nc(NCCC3CC3)n(C)c(=O)c2c1` [Compound 18, (R)-6-chloro-3-((1-(2-((2-cyclopropylethyl)amino)-3,6-dimethyl-4-oxo-3,4-dihydroquinazolin-8-yl)ethyl)amino)-N-(methylsulfonyl) picolinamide], the IC50 in assay [1] was 1 to 5 µM; in assay [2], at least 5 µM; in assay [3], at least 1 µM; in assay [4], at least 1 µM.

Take `Cc1cc([C@@H](C)Nc2ccc(Cl)nc2C(=O)NS(C)(=O)=O)c2nc(NCC3CC(F)(F)C3)n(C)c(=O)c2c1` [Compound 20, (R)-6-chloro-3-((1-(2-(((3,3-difluorocyclobutyl)methyl)amino)-3,6-dimethyl-4-oxo-3,4-dihydroquinazolin-8-yl)ethyl)amino)-N-(methylsulfonyl) picolinamide]: the half-maximal inhibitory concentration (IC50) in assay [1] is 0.5 to 1 µM; in assay [2] it was 1 to 5 µM; in assay [3], at least 1 µM; in assay [4], at least 1 µM.

Consider `C[C@@H](Nc1ccc(Cl)nc1C(=O)NS(C)(=O)=O)c1cccc2c(=O)n(C)c(N3Cc4ccc(F)cc4C3)nc12` [Compound 23, (R)-6-chloro-3-((1-(2-(5-fluoroisoindolin-2-yl)-3-methyl-4-oxo-3,4-dihydroquinazolin-8-yl)ethyl)amino)-N-(methylsulfonyl) picolinamide], for which the IC50 in assay [1] is 0.5 to 1 µM; in assay [2], 1 to 5 µM; in assay [3] it was at least 1 µM; in assay [4], under 0.1 µM.

In the case of `Cc1cc([C@@H](C)Nc2ccc(Cl)nc2C(=O)NS(C)(=O)=O)c2nc(NCC3(C(F)(F)F)CC3)n(C)c(=O)c2c1` [Compound 24, (R)-6-chloro-3-((1-(3,6-dimethyl-4-oxo-2-(((1-(trifluoromethyl)cyclopropyl)methyl)amino)-3,4-dihydroquinazolin-8-yl)ethyl)amino)-N-(methylsulfonyl) picolinamide], the IC50 in assay [1] is 0.25 to 0.5 µM; in assay [2], 1 to 5 µM; in assay [3] it was at least 1 µM; in assay [4] it was 0.25 to 0.5 µM.

Consider `Cc1cc([C@@H](C)Nc2ccc(Cl)nc2C(=O)NS(C)(=O)=O)c2nc(N3C[C@H](C)O[C@@H](C)C3)n(C)c(=O)c2c1` [Compound 25, 6-chloro-3-(((R)-1-(2-((2S,6S)-2,6-dimethylmorpholino)-3,6-dimethyl-4-oxo-3,4-dihydroquinazolin-8-yl)ethyl)amino)-N-(methylsulfonyl) picolinamide], for which the IC50 is 0.25 to 0.5 µM in assay [1], 1 to 5 µM in assay [2], at least 1 µM in assay [3] and at least 1 µM in assay [4].

For `Cc1cc([C@@H](C)Nc2ccc(Cl)nc2C(=O)NS(C)(=O)=O)c2nc(N3C[C@H]4C[C@@H]3CO4)n(C)c(=O)c2c1` [Compound 26, 3-(((R)-1-(2-((1R,4R)-2-oxa-5-azabicyclo[2.2.1]heptan-5-yl)-3,6-dimethyl-4-oxo-3,4-dihydroquinazolin-8-yl)ethyl)amino)-6-chloro-N-(methylsulfonyl) picolinamide], the IC50 was under 0.25 µM in assay [1], 1 to 5 µM in assay [2], at least 1 µM in assay [3] and 0.5 to 1 µM in assay [4].

Values taken from US12281122B1, “PI3K inhibitors” (Cogent Biosciences, Inc., priority 2023, dated 2025).
